Assay results published in patent US20220212192A1, “Microfluidic Device for High-Throughput Screening of Tumor Cell Adhesion and Motility” (Northeastern University, priority 2019, published 2022).

System: 3D NHL spheroids with active immune cells
Test: Proteomic analysis of perfusate media from 3D NHL (lymphoma) spheroids on-chip
Type: cell-based
Details: significantly higher than lenalidomide-treated monocultures or spheroids with inactive immune cells, data not shown

Compound: Nc1cccc2c1CN(C1CCC(=O)NC1=O)C2=O (centres unmarked) [lenalidomide]
- secretion of IL8: increased secretion
- secretion of cytolytic granzyme B: increased secretion
